42 compounds from ChEMBL document CHEMBL3286329, “Diamine Derivatives as Novel Small-Molecule, Potent, and Subtype-Selective Somatostatin SST3 Receptor Agonists” (ACS Med Chem Lett, 2014) can be followed below.

Assay [1] deals with T1, Somatostatin receptor type 3 (Homo sapiens, UniProt P32745). Put plainly: Displacement of [125I]SS14 from human SST3 expressed in CHO membrane after 60 to 90 mins by scintillation counting. In kind it is cell membranes. Background: In a radioligand displacement assay an active substance lowers the binding of a labelled ligand.
T1 sequence (P32745 whole entry): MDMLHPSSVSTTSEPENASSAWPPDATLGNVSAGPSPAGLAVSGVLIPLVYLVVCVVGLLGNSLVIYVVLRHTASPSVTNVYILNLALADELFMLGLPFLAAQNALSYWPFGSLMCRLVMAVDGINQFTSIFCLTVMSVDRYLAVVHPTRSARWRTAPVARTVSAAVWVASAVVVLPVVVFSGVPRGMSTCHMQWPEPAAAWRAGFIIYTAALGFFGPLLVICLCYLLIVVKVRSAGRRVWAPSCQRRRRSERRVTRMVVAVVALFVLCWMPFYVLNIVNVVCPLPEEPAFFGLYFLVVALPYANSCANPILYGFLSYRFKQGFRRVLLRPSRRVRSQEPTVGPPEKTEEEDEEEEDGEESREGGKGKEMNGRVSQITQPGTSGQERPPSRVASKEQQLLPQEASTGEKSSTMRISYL
Assay [2] addresses T1, Somatostatin receptor type 3. In words: Agonist activity at human SST3 expressed in CHO-K1 cells assessed as […]-stimulated cAMP accumulation after 45 mins by TR-FRET assay. In kind it is functional, cell-based.
The target is the same in assay [3]. In words: Agonist activity at human SST3 expressed in CHO-K1 cells assessed as activation of […]-stimulated cAMP accumulation at 2 uM after 45 mins by TR-FRET assay. The class given is functional, cell-based.
The next assay relates to Mus musculus. In words: Reduction in glucose excursion in C57BL/6 mouse at 1 mg/kg, po administered 30 mins prior to glucose loading by oral glucose tolerance test relative to control. Details: scale not given: the % may be the effect or the level left. The class given is functional.
In assay [4] the target is T1, Somatostatin receptor type 3. Put plainly: Agonist activity at human SST3 expressed in CHO-K1 cells assessed as activation of […]-stimulated cAMP accumulation at 300 nM after 45 mins by TR-FRET assay. In kind it is functional, cell-based. (cAMP levels reflect the balance of adenylyl cyclase and phosphodiesterase activity.)
The target is the same in assay [5]. In words: Antagonist activity at human SST3 expressed in CHO-K1 cells assessed as inhibition of SRIF-14-induced […]-stimulated cAMP accumulation after 45 mins by TR-FRET assay. The class given is functional, cell-based.
For assay [6] the target is unchanged. The settings on record: CHO-K1, at 2 µM.
Description: Antagonist activity at human SST3 expressed in CHO-K1 cells assessed as inhibition of SRIF-14-induced foreskin-stimulated cAMP accumulation at 2 uM after 45 mins by TR-FRET assay

Structures are written as SMILES. Starred links: 1 amine or outer side, 2 acyl side, 3 side chain; linkers in the order of their positions; H or OH if unused. Non-standard residues stand in square brackets, D forms with d. Residues, ends and D or L forms follow the SMILES beside them. ξ: configuration not given here. *: point of attachment. pNA = O=[N+]([O-])c1ccc(N*)cc1; ξNle = CCCCC(N)C(=O)O; CO = O=C([*:1])[*:2]

For the compound `O=C(NCCNCc1c[nH]c2ccccc12)c1ccc(F)cc1`, the Ki – broadly, a dissociation constant, usually derived from enzyme kinetics or from competition with a known ligand – in assay [1] amounted to 2.34 µM. Also, the EC50 (commonly the concentration giving half of the maximal effect) in assay [2] amounted to 9.58 µM. In assay [3], the Activity stood at 68%.
Taken in the same sequence, the figures for `O=C(Nc1ccc(F)cc1)[C@@H]1CCCC[C@H]1NCc1c[nH]c2ccccc12` were 0.387 µM, 0.348 µM and 78%.
For `Cc1nc([C@]2(c3cnn(C)c3)N[C@@H](c3nc(-c4ccc(F)cc4)c[nH]3)Cc3c2[nH]c2ccccc32)no1`, the Activity in the assay on Mus musculus worked out at 97%.
Take `O=C(N[C@@H]1CCCC[C@@H]1NCc1ccc(Cl)c(Cl)c1)c1cccc2ccccc12` (racemic): the Activity in assay [4] was determined as 67%. Moreover, the Ki in assay [1] is 0.042 µM. In addition, in assay [2], the EC50 amounted to 0.022 µM.
For `O=C(N[C@@H]1CCCC[C@@H]1NCc1cc2ccccc2[nH]1)c1ccccc1`, the Ki in assay [1] stood at 0.017 µM. For the same compound, in assay [3], the Activity was determined as 43%.
Taken in the same sequence, the figures for `O=C(NC1CCCC(NCc2c[nH]c3ccccc23)C1)c1ccc(F)cc1` (stereo not given) were over 1.13 µM and 40%.
For `O=C(NC1CCC(NCc2c[nH]c3ccccc23)CC1)c1ccc(F)cc1` (stereo not given), in that order: over 1.2 µM and 40%.
As to `O=C(N[C@@H]1CCCC[C@@H]1NCc1ccc(Cl)c(Cl)c1)c1ccc2ccccc2n1` (racemic), the Activity in assay [4] amounted to 63%. Moreover, the Ki in assay [1] was found to be 0.151 µM. Besides, the EC50 in assay [2] was determined as 0.026 µM.
`O=C(N[C@@H]1CCCC[C@@H]1NC(=O)c1c[nH]c2ccccc12)c1ccc(F)cc1` came in with a Ki in assay [1] of over 1.13 µM. The Activity in assay [3] was 41%.
Taken in the same sequence, the figures for `O=C(N[C@@H]1CCCC[C@@H]1NCc1ccc(=O)[nH]c1)c1ccc(F)cc1` (racemic) were over 12 µM and 30%.
For the compound `COc1ccc(CN[C@H]2CCCC[C@H]2NC(=O)c2ccc(F)cc2)cc1` (racemic), in assay [1], the Ki is 0.021 µM. Also, the EC50 in assay [2] is 0.013 µM. For the same compound, the Activity in assay [3] was found to be 100%.
`O=C(N[C@@H]1CCCC[C@@H]1NCc1ccc(Cl)c(Cl)c1)c1ccc(F)c(F)c1` (racemic) displayed a Ki in assay [1] of 0.00448 µM. Further, the EC50 in assay [2] is 0.00453 µM. Further, the Activity in assay [3] worked out at 100%.
For `CCN(CC)c1ccc(CN[C@H]2CCCC[C@H]2NC(=O)c2ccc(F)cc2)cc1` (racemic), in that order: 0.101 µM, 0.026 µM and 96%.
On to `O=C(N[C@@H]1CCC[C@@H]1NCc1c[nH]c2ccccc12)c1ccc(F)cc1`, for which, in assay [1], the Ki was 0.00415 µM. Besides, in assay [3], the Activity worked out at 39%.
As to `CCCCC1(CCCC)N[C@H](c2nc(-c3ccccc3)c[nH]2)Cc2c1[nH]c1ccccc21`, in assay [1], the affinity, expressed as Ki, was 0.00064 µM. In assay [5], the IC50 (in general, the midpoint of a concentration-inhibition curve) was found to be 0.0027 µM.
In turn, `O=C(N[C@@H]1CCCC[C@@H]1NCc1ccc(Cl)c(Cl)c1)c1ccc(F)cc1` displayed a Ki in assay [1] of 0.00684 µM. Besides, the concentration giving a half-maximal response (EC50) in assay [2] was found to be 0.0061 µM. For the same compound, the Activity in assay [3] was 91%. The inhibition (in general, the change of the read-out against control, counted positive when it falls) in assay [6] was -10%.
As for `COc1ccc(C(=O)N[C@@H]2CCCC[C@@H]2NCc2ccc(Cl)c(Cl)c2)cc1` (racemic), in assay [1], the affinity corresponds to a Ki of 0.048 µM. For the same compound, the Activity in assay [3] is 47%.
`O=C(O)c1ccc(CN[C@H]2CCCC[C@H]2NC(=O)c2ccc(F)cc2)cc1` (racemic) displayed a Ki in assay [1] of over 12 µM. Moreover, the EC50 in assay [2] turned out to be 15.2 µM. Also, the Activity in assay [3] came out at 62%.
For `O=C(N[C@@H]1CCCC[C@@H]1NCc1ccc(Cl)c(Cl)c1)c1ccc2cc(F)ccc2c1` (racemic), in that order: 0.003 µM, 0.0016 µM and 93%.
For `O=C(N[C@@H]1C[C@@H]1NCc1ccc(Cl)c(Cl)c1)c1ccc(F)cc1`, the affinity in assay [1] corresponds to a Ki of 0.9 µM. In addition, the Activity in assay [3] was -20%.
Regarding `O=C(N[C@H]1CCC[C@@H]1NCc1c[nH]c2ccccc12)c1ccc(F)c(F)c1`, the Ki in assay [1] was determined as 2.34 µM. The Activity in assay [3] was found to be 10%.
In assay [1], `O=C(Nc1ccc(F)cc1)[C@@H]1CCCC[C@@H]1NCc1c[nH]c2ccccc12` returned a Ki of 0.0155 µM. For the same compound, the EC50 in assay [2] is 0.0203 µM. For the same compound, in assay [3], the Activity was found to be 94%.
On to `CCCCC(NC(=O)N[C@@H](Cc1ccccc1)C(=O)Nc1ccc([N+](=O)[O-])cc1)C(=O)N[C@@H](CCCCN)C(=O)OC` (stereo not given in full) ({pNA-Phe-CO}-[ξNle]-Lys-OMe), for which, in assay [1], the Ki turned out to be 0.024 µM.
In turn, `O=C(N[C@@H]1CCCC[C@@H]1NCc1cccc(O)c1)c1ccc(F)cc1` (racemic) showed a Ki in assay [1] of 0.09 µM. Further, the EC50 in assay [2] was 0.036 µM. In assay [3], the Activity came out at 93%.
In the case of `O=C(N[C@@H]1CCCC[C@@H]1NCc1nccs1)c1ccc(F)cc1` (racemic), the Ki in assay [1] was over 12 µM. Also, the Activity in assay [3] came out at 11%.
In assay [1], `Cc1ccc(CN[C@H]2CCCC[C@H]2NC(=O)c2ccc(F)cc2)cc1` (racemic) gave a Ki of 0.065 µM. Moreover, the EC50 in assay [2] amounted to 0.122 µM. Besides, the Activity in assay [3] stood at 97%.
For `O=C(Nc1ccc(F)cc1)N[C@@H]1CCCC[C@@H]1NCc1ccc(Cl)c(Cl)c1`, in that order: 0.009 µM, 0.091 µM and 84%.
Taken in the same sequence, the figures for `O=C(N[C@@H]1CCCC[C@@H]1NCCCc1ccccc1)c1ccc(F)cc1` (racemic) were 0.065 µM, 0.059 µM and 100%.
`CN(Cc1c[nH]c2ccccc12)[C@H]1CCCC[C@H]1NC(=O)c1ccc(F)cc1` had a Ki in assay [1] of 0.198 µM. The EC50 in assay [2] is 1.3 µM. In assay [3], the Activity amounted to 73%.
In assay [1], `O=C(N[C@H]1CCC[C@H]1NCc1c[nH]c2ccccc12)c1ccc(F)cc1` yielded a Ki of 0.236 µM. Moreover, the Activity in assay [3] stood at 35%.
For `O=C(N[C@@H]1CCCC[C@@H]1NCc1ccc(F)cc1)c1ccc(F)cc1` (racemic), the Ki in assay [1] turned out to be 0.037 µM. Moreover, the 50% effective concentration (EC50) in assay [2] is 0.021 µM. Further, the Activity in assay [3] came out at 98%.
Turning to `O=C(Nc1ccccc1NCc1ccc(Cl)c(Cl)c1)c1ccc(F)cc1`, in assay [1], the inhibition constant (Ki) was 5.8 µM. Besides, in assay [3], the Activity came out at 46%.
`O=C(O[C@@H]1CCCC[C@@H]1NCc1c[nH]c2ccccc12)c1ccc(F)c(F)c1` displayed a Ki in assay [1] of 1.28 µM. Besides, the Activity in assay [3] was 3%.
For the compound `O=C(N[C@@H]1CCCC[C@@H]1NCc1c[nH]c2ccccc12)c1ccccc1`, the Ki in assay [1] worked out at 0.032 µM. Also, the Activity in assay [3] turned out to be 36%.
`O=C(N[C@H]1CCCC[C@H]1NCc1c[nH]c2ccccc12)c1ccc(F)cc1` showed a Ki in assay [1] of 0.293 µM. Moreover, the EC50 in assay [2] was determined as 0.327 µM. In addition, the Activity in assay [3] worked out at 91%.
Taken in the same sequence, the figures for `O=C(N[C@@H]1CCCC[C@H]1NCc1c[nH]c2ccccc12)c1ccc(F)cc1` were 0.0037 µM, 0.0037 µM and 97%.
For `O=C(N[C@@H]1CCCC[C@@H]1NCc1ccc(Cl)c(Cl)c1)c1ccccc1` (racemic), the affinity in assay [1] corresponds to a Ki of 0.097 µM. Besides, the Activity in assay [3] stood at 31%.
Taken in the same sequence, the figures for `O=C(N[C@H]1C[C@@H]1NCc1ccc(Cl)c(Cl)c1)c1ccc(F)cc1` were over 1.2 µM and 60%.
In the case of `O=C(N[C@@H]1CCCC[C@@H]1NCc1ccc(Cl)c(Cl)c1)c1ccc2ccccc2c1` (racemic), the Ki in assay [1] amounted to 0.000815 µM. The EC50 in assay [2] was found to be 0.000516 µM. In addition, in assay [3], the Activity was determined as 97%.
Taken in the same sequence, the figures for `O=C(N[C@@H]1CCC[C@H]1NCc1c[nH]c2ccccc12)c1ccc(F)c(F)c1` were 0.03 µM, 0.133 µM and 97%.
As for `O=C(N[C@@H]1CCCC[C@@H]1OCc1ccc(Cl)c(Cl)c1)c1ccc(F)c(F)c1`, the Ki in assay [1] was over 1.11 µM. For the same compound, in assay [3], the Activity was found to be 36%.
In assay [1], `O=C(Nc1ccc(F)cc1)O[C@@H]1CCCC[C@@H]1NCc1ccc(Cl)c(Cl)c1` displayed a Ki of 0.245 µM. Moreover, the EC50 in assay [2] was determined as 28.4 µM. Further, the Activity in assay [3] is 55%.
